Laboratory results as given in PubChem BioAssay (NCI).
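Five concentrations, 48 hours, 96-well plates. TGI denotes the concentration required for complete inhibition of growth.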

Tests used:
Test in all cases: inhibition of tumour cell growth, NCI panel, 48 h
SW-620 colon = tested on: SW-620 colon
SK-MEL-2 melanoma = tested on: SK-MEL-2 melanoma
U251 CNS = tested on: U251 CNS
MOLT-4 leukemia = tested on: MOLT-4 leukemia
SNB-75 CNS = tested on: SNB-75 CNS
UACC-257 melanoma = tested on: UACC-257 melanoma
HOP-92 NSCLC = tested on: HOP-92 NSCLC
LXFL 529 NSCLC = tested on: LXFL 529 NSCLC
SK-MEL-5 melanoma = tested on: SK-MEL-5 melanoma
K-562 leukemia = tested on: K-562 leukemia
HCT-116 colon = tested on: HCT-116 colon
COLO 205 colon = tested on: COLO 205 colon
HCT-15 colon = tested on: HCT-15 colon
OVCAR-8 ovarian = tested on: OVCAR-8 ovarian
SR leukemia = tested on: SR leukemia
MALME-3M melanoma = tested on: MALME-3M melanoma
HCC-2998 colon = tested on: HCC-2998 colon
DLD-1 colon = tested on: DLD-1 colon
CCRF-CEM leukemia = tested on: CCRF-CEM leukemia
KM12 colon = tested on: KM12 colon
SN12C renal = tested on: SN12C renal
HL-60(TB) leukemia = tested on: HL-60(TB) leukemia
RXF 393 renal = tested on: RXF 393 renal
TK-10 renal = tested on: TK-10 renal
SNB-19 CNS = tested on: SNB-19 CNS
NCI-H460 lung = tested on: NCI-H460 lung
M14 melanoma = tested on: M14 melanoma
XF 498 CNS = tested on: XF 498 CNS
HOP-62 NSCLC = tested on: HOP-62 NSCLC
A549 NSCLC = tested on: A549 NSCLC
SNB-78 CNS = tested on: SNB-78 CNS
SK-OV-3 ovarian = tested on: SK-OV-3 ovarian
DMS 273 small cell lung = tested on: DMS 273 small cell lung
SF-295 CNS = tested on: SF-295 CNS
LOX IMVI melanoma = tested on: LOX IMVI melanoma
NCI-H522 lung = tested on: NCI-H522 lung
ACHN renal = tested on: ACHN renal
SK-MEL-28 melanoma = tested on: SK-MEL-28 melanoma
NCI-H23 lung = tested on: NCI-H23 lung
OVCAR-3 ovarian = tested on: OVCAR-3 ovarian
UO-31 renal = tested on: UO-31 renal
OVCAR-4 ovarian = tested on: OVCAR-4 ovarian
NCI-H226 lung = tested on: NCI-H226 lung
SF-268 CNS = tested on: SF-268 CNS
HT29 colon = tested on: HT29 colon
IGROV1 ovarian = tested on: IGROV1 ovarian
EKVX NSCLC = tested on: EKVX NSCLC
KM20L2 colon = tested on: KM20L2 colon
786-0 renal = tested on: 786-0 renal
SF-539 CNS = tested on: SF-539 CNS
UACC-62 melanoma = tested on: UACC-62 melanoma
RPMI-8226 leukemia = tested on: RPMI-8226 leukemia
CAKI-1 renal = tested on: CAKI-1 renal
DMS 114 small cell lung = tested on: DMS 114 small cell lung
M19-MEL melanoma = tested on: M19-MEL melanoma

Measured: TGI

Cc1nc2c(n1CC(C)(C)C)C(=O)c1ccccc1C2=O
> 100 µM: SW-620 colon | SK-MEL-2 melanoma | U251 CNS | MOLT-4 leukemia | SNB-75 CNS | UACC-257 melanoma | HOP-92 NSCLC | LXFL 529 NSCLC | SK-MEL-5 melanoma | K-562 leukemia | HCT-116 colon | COLO 205 colon | HCT-15 colon | OVCAR-8 ovarian | SR leukemia | MALME-3M melanoma | HCC-2998 colon | DLD-1 colon | CCRF-CEM leukemia | KM12 colon | SN12C renal | HL-60(TB) leukemia | RXF 393 renal | TK-10 renal | SNB-19 CNS | NCI-H460 lung | M14 melanoma | XF 498 CNS | HOP-62 NSCLC | A549 NSCLC | SNB-78 CNS | SK-OV-3 ovarian | DMS 273 small cell lung | SF-295 CNS | LOX IMVI melanoma | NCI-H522 lung | ACHN renal | SK-MEL-28 melanoma | NCI-H23 lung | OVCAR-3 ovarian | UO-31 renal | OVCAR-4 ovarian | NCI-H226 lung | SF-268 CNS | HT29 colon | IGROV1 ovarian | EKVX NSCLC | KM20L2 colon | 786-0 renal | SF-539 CNS | UACC-62 melanoma

O=C1N[C@@H]2CCC[C@@H]2[C@@H]1c1ccc(Cl)cc1
> 100 µM: SW-620 colon | MOLT-4 leukemia | SNB-75 CNS | UACC-257 melanoma | SK-MEL-5 melanoma | K-562 leukemia | RPMI-8226 leukemia | COLO 205 colon | HCT-15 colon | OVCAR-8 ovarian | CAKI-1 renal | CCRF-CEM leukemia | KM12 colon | SN12C renal | HL-60(TB) leukemia | RXF 393 renal | TK-10 renal | SNB-19 CNS | M14 melanoma | DMS 114 small cell lung | A549 NSCLC | SK-OV-3 ovarian | DMS 273 small cell lung | SF-295 CNS | LOX IMVI melanoma | NCI-H522 lung | SK-MEL-28 melanoma | NCI-H23 lung | OVCAR-3 ovarian | UO-31 renal | M19-MEL melanoma | NCI-H226 lung | SF-268 CNS | HT29 colon | IGROV1 ovarian | EKVX NSCLC | SF-539 CNS | UACC-62 melanoma
